Reference: ChEMBL document CHEMBL5214910, “Rational Design of Dipicolylamine-Containing Carbazole Amphiphiles Combined with Zn2+ as Potent Broad-Spectrum Antibacterial Agents with a Membrane-Disruptive Mechanism” (J Med Chem, 2021)
Active and inactive are the calls of the source. No cut-off for these calls is given here.

Key:
Cell membrane [1] = assay: Induction of outer membrane permeabilization in Escherichia coli ATCC 25922 assessed as increase in fluorescence intensity at 2 times to 8 times MIC measured for 1 hrs in the presence of 12.5 ug/ml Zn2+ by NPN uptake assay; conditions: DDE = dose-dependent effect
Escherichia coli [2] = assay: Antibacterial activity against Escherichia coli ATCC 25922 assessed as inhibition of bacterial growth by measuring salt resistance incubated for 24 hrs in the presence of 12.5 ug/ml Zn2+ and 175.5 ug/ml K+ by Muller hinton broth based dilution assay; format: functional
Escherichia coli [3] = assay: Antibacterial activity against Escherichia coli ATCC 25922 assessed as log reduction in bacterial count at 4 times of MIC incubated for 1 hrs in the presence of 12.5 ug/ml Zn2+ by Muller hinton agar based time kill assay; format: functional
Cell membrane [4] = assay: Induction of outer membrane permeabilization in Escherichia coli ATCC 25922 assessed as increase in fluorescence intensity at 2 times to 8 times MIC measured for 1 hrs in the presence of 12.5 ug/ml Zn2+ by NPN uptake assay; format: subcellular; conditions: DDE = dose-dependent effect
[5] = Ratio of MIC for antibacterial activity against Acinetobacter baumannii ATCC 17978 to MIC for antibacterial activity against Acinetobacter baumannii ATCC 17978 in the presence of Zn2+; format: functional
Staphylococcus aureus [6] = assay: Antibacterial activity against Staphylococcus aureus ATCC 29213 assessed as inhibition of bacterial growth by measuring salt resistance incubated for 24 hrs in the presence of 12.5 ug/ml Zn2+ and 100 ug/ml Ca2+ by Muller hinton broth based dilution assay; format: functional
Lipopolysaccharide (LPS) [7] = assay: Displacement of BODIPY-TR-cadaverin from Pseudomonas aeruginosa Lipopolysaccharide at 8 times of MIC incubated for 30 mins by fluorescence based microplate reader analysis relative to control
Cell membrane [8] = assay: Disruption of cell membrane integrity in Staphylococcus aureus ATCC 29213 assessed as increase in fluorescence intensity at 2 times to 8 times of MIC measured for 1 hrs in the presence of 12.5 ug/ml Zn2+ by SYTOX green dye based assay; format: subcellular; conditions: DDE = dose-dependent effect
Cell membrane [9] = assay: Induction of cell membrane […] in Escherichia coli ATCC 25922 assessed as increase in fluorescence intensity at 2 times to 8 times of MIC measured for 1 hrs in the presence of 12.5 ug/ml Zn2+ by […] dye based assay; format: subcellular
Staphylococcus aureus [10] = assay: Antibacterial activity against Staphylococcus aureus ATCC 29213 assessed as inhibition of bacterial growth by measuring salt resistance incubated for 24 hrs in the presence of 12.5 ug/ml Zn2+ and 3220 ug/ml Na+ by Muller hinton broth based dilution assay; format: functional
Escherichia coli [11] = assay: Antibacterial activity Escherichia coli ATCC 25922 assessed as inhibition of bacterial growth incubated for 24 hrs in the presence of 25 ug/mL Zn2+ by Muller hinton broth based dilution assay; format: functional
Escherichia coli [12] = assay: Antibacterial activity Escherichia coli ATCC 25922 assessed as inhibition of bacterial growth incubated for 24 hrs in the presence of […] ug/mL Zn2+ by Muller hinton broth based dilution assay; format: functional
[13] = Hemolytic activity in rabbit RBC incubated for 1 hrs in the presence of 12.5 ug/mL Zn2+ by fluorescence based microplate reader assay; format: toxicity, cell-based, Oryctolagus cuniculus, Erythrocyte; conditions: rabbit red blood cells (erythrocytes)
Staphylococcus aureus [14] = assay: Antibacterial activity against Staphylococcus aureus ATCC 29213 assessed as inhibition of bacterial growth incubated for 24 hrs in the presence of 0.78 ug/mL Zn2+ by Muller hinton broth based dilution assay; format: functional
Staphylococcus aureus [15] = assay: Antibacterial activity against Staphylococcus aureus ATCC 29213 assessed as inhibition of bacterial growth incubated for 24 hrs in the presence of 25 ug/mL Zn2+ by Muller hinton broth based dilution assay; format: functional
Staphylococcus aureus [16] = assay: Antibacterial activity against Methicillin-resistant Staphylococcus aureus NCTC10442 assessed as inhibition of bacterial growth by measuring salt resistance incubated for 24 hrs in the presence of 12.5 ug/ml Zn2+ and 100 ug/ml Ca2+ by Muller hinton broth based dilution assay; format: functional
Escherichia coli [17] = assay: Antibacterial activity Escherichia coli ATCC 25922 assessed as inhibition of bacterial growth incubated for 24 hrs in the presence of 3.125 ug/mL Zn2+ by Muller hinton broth based dilution assay; format: functional
Staphylococcus aureus [18] = assay: Antibacterial activity against Methicillin-resistant Staphylococcus aureus NCTC10442 assessed as inhibition of bacterial growth incubated for 24 hrs in the presence of 25 ug/mL Zn2+ by Muller hinton broth based dilution assay; format: functional
Staphylococcus aureus [19] = assay: Antibacterial activity against Methicillin-resistant Staphylococcus aureus NCTC10442 assessed as inhibition of bacterial growth incubated for 24 hrs in the presence of […] ug/mL Zn2+ by Muller hinton broth based dilution assay; format: functional
Staphylococcus aureus [20] = assay: Antibacterial activity against Methicillin-resistant Staphylococcus aureus NCTC10442 assessed as inhibition of bacterial growth incubated for 24 hrs in the presence of 12.5 ug/mL Zn2+ by Muller hinton broth based dilution assay; format: functional
Pseudomonas aeruginosa [21] = assay: Antibacterial activity Pseudomonas aeruginosa ATCC 9027 assessed as inhibition of bacterial growth incubated for 24 hrs in the presence of 50 ug/mL Zn2+ by Muller hinton broth based dilution assay; format: functional
Pseudomonas aeruginosa [22] = assay: Antibacterial activity Pseudomonas aeruginosa ATCC 9027 assessed as inhibition of bacterial growth incubated for 24 hrs in the presence of 0.78 ug/mL Zn2+ by Muller hinton broth based dilution assay; format: functional
Lipopolysaccharide (LPS) [23] = assay: Displacement of BODIPY-TR-cadaverin from Pseudomonas aeruginosa Lipopolysaccharide at 2 times of MIC incubated for 30 mins by fluorescence based microplate reader analysis relative to control
Pseudomonas aeruginosa [24] = assay: Antibacterial activity Pseudomonas aeruginosa ATCC 9027 assessed as inhibition of bacterial growth incubated for 24 hrs in the presence of 3.125 ug/mL Zn2+ by Muller hinton broth based dilution assay; format: functional
Escherichia coli [25] = assay: Antibacterial activity Escherichia coli ATCC 25922 assessed as inhibition of bacterial growth incubated for 24 hrs in the presence of 50 ug/mL Zn2+ by Muller hinton broth based dilution assay; format: functional
Staphylococcus aureus [26] = assay: Antibacterial activity against Staphylococcus aureus ATCC 29213 assessed as inhibition of bacterial growth incubated for 24 hrs in the presence of […] ug/mL Zn2+ by Muller hinton broth based dilution assay; format: functional
Pseudomonas aeruginosa [27] = assay: Antibacterial activity Pseudomonas aeruginosa ATCC 9027 assessed as inhibition of bacterial growth incubated for 24 hrs in the presence of 12.5 ug/mL Zn2+ by Muller hinton broth based dilution assay; format: functional
Pseudomonas aeruginosa [28] = assay: Antibacterial activity Pseudomonas aeruginosa ATCC 9027 assessed as inhibition of bacterial growth incubated for 24 hrs in the presence of 0.39 ug/mL Zn2+ by Muller hinton broth based dilution assay; format: functional
Cell membrane [29] = assay: Disruption of cell membrane integrity in Staphylococcus aureus ATCC 29213 assessed as increase in red fluorescence at 8 times of MIC measured for 2 hrs in the presence of 12.5 ug/ml Zn2+ by PI and SYTO staining based assay
Lipopolysaccharide (LPS) [30] = assay: Displacement of BODIPY-TR-cadaverin from Pseudomonas aeruginosa Lipopolysaccharide at 16 times of MIC incubated for 30 mins by fluorescence based microplate reader analysis relative to control

SMILES: CC(C)=CCn1c2ccccc2c2c(OCC(O)CN(Cc3ccccn3)Cc3ccccn3)cccc21 (stereo not given)
- Activity (Cell membrane [1]): Dde
- MIC (Escherichia coli [2]): 1.56 µg/mL
- log(activity) (Escherichia coli [3]): 2.91
- Activity (Cell membrane [4]): Dde
- Ratio [5]: 2
- MIC (Staphylococcus aureus [6]): 3.12 µg/mL
- Activity (Lipopolysaccharide (LPS) [7]): 1.32%
- Activity (Cell membrane [8]): Dde
- Activity (Cell membrane [9]): Active
- MIC (Staphylococcus aureus [10]): 1.56 µg/mL
- MIC (Escherichia coli [11]): 1.56 µg/mL
- MIC (Escherichia coli [12]): 6.25 µg/mL
- HC50 at 1 h [13]: > 200 µg/mL
- MIC (Staphylococcus aureus [14]): 3.12 µg/mL
- MIC (Staphylococcus aureus [15]): 1.56 µg/mL
- MIC (Staphylococcus aureus [16]): 3.12 µg/mL
- MIC (Escherichia coli [17]): 3.12 µg/mL
- MIC (Staphylococcus aureus [18]): 0.78 µg/mL
- MIC (Staphylococcus aureus [19]): 1.56 µg/mL
- MIC (Staphylococcus aureus [20]): 1.56 µg/mL
- MIC (Pseudomonas aeruginosa [21]): 3.12 µg/mL
- MIC (Pseudomonas aeruginosa [22]): > 50 µg/mL
- Activity (Lipopolysaccharide (LPS) [23]): 0.19%
- MIC (Pseudomonas aeruginosa [24]): 12.5 µg/mL
- MIC (Escherichia coli [25]): 1.56 µg/mL
- MIC (Staphylococcus aureus [26]): 3.12 µg/mL
- MIC (Pseudomonas aeruginosa [27]): 3.12 µg/mL
- MIC (Pseudomonas aeruginosa [28]): > 50 µg/mL
- Activity (Cell membrane [29]): Active
- Activity (Lipopolysaccharide (LPS) [30]): 2.47%
